One experiment deals with A2780. The experiment is described as follows: Cytotoxicity against human A2780 cells. The format is functional, cell-based.
The subject of experiment [1] is Saccharomyces cerevisiae. As to the kind of experiment: DNA damaging activity against Saccharomyces cerevisiae 1353 assessed as concentration required to produce 12 mm zone of inhibition. The format is functional.
For experiment [2], the system named is Saccharomyces cerevisiae. The experiment is described as follows: DNA damaging activity against Saccharomyces cerevisiae 1140 assessed as concentration required to produce 12 mm zone of inhibition. It is filed as functional.
Experiment [3] deals with Saccharomyces cerevisiae. As to the kind of experiment: DNA damaging activity against Saccharomyces cerevisiae 1138 assessed as concentration required to produce 12 mm zone of inhibition. The format is functional.
The subject of experiment [4] is Saccharomyces cerevisiae. The experiment is described as follows: DNA damaging activity against Saccharomyces cerevisiae Sc7 assessed as concentration required to produce 12 mm zone of inhibition. The format is functional.

Values after ≈ are worked out from the molar mass of the structure shown.

Take `CC(=O)N[C@H]1[C@H](O[C@H]2CC[C@]3(C)[C@H]4CC=C5[C@@H]6CC(C)(C)CC[C@]6(C(=O)O)CC[C@@]5(C)[C@]4(C)CC[C@H]3C2(C)C)O[C@H](CO[C@@H]2OC[C@H](O)[C@H](O)[C@H]2O[C@@H]2OC[C@@H](O)[C@H](O)[C@H]2O)[C@@H](O)[C@@H]1O` [ALBIZIATRIOSIDE A]: inhibition with A2780 was half-maximal at 0.9 µg/mL (≈ 0.974 µM) (IC50). The Activity in the experiment on Saccharomyces cerevisiae [1] was found to be 35 µg/mL; in the experiment with Saccharomyces cerevisiae [2], 35 µg/mL; in the experiment on Saccharomyces cerevisiae [3] it was 30 µg/mL; in the experiment with Saccharomyces cerevisiae [4], 30 µg/mL.

In the case of `CC(=O)N[C@H]1[C@H](O[C@H]2CC[C@]3(C)[C@H]4CC=C5[C@@H]6CC(C)(C)CC[C@]6(C(=O)O)CC[C@@]5(C)[C@]4(C)CC[C@H]3C2(C)C)O[C@H](CO[C@@H]2OC[C@H](O)[C@H](O)[C@H]2O[C@@H]2OC[C@H](O)[C@H](O)[C@H]2O)[C@@H](O)[C@@H]1O`, the IC50 in the experiment on A2780 turned out to be 0.8 µg/mL (≈ 0.866 µM). For the same compound, the Activity with Saccharomyces cerevisiae [1] came to 30 µg/mL; with Saccharomyces cerevisiae [2], 40 µg/mL; in the experiment with Saccharomyces cerevisiae [3], 25 µg/mL; in the experiment on Saccharomyces cerevisiae [4], 45 µg/mL.

One may read the IC50 as the concentration that inhibits the measured activity by half. Lower therefore signals greater potency.

For the origin of these results see ChEMBL document CHEMBL1150823, “Two bioactive saponins from Albizia subdimidiata from the Suriname rainforest” (J Nat Prod, 2001).
